Measured values reported in PubChem BioAssay AID1745844 (Carcinogenic Potency Database (CPDB), 2022).
Activity calls are given as the source filed them. No rule for the calls is given here.

Tested on: rodent lifetime carcinogenesis bioassay, tumor incidence TD50
Assay: chronic cancer bioassays in animals – CPDB, compiled studies (AID 1745844)
[1] = rat, strain Fischer 344, females, in feed, site: any site (literature study), lesion: several types, types named in the paper, dosed 103 weeks, study length 105 weeks
[2] = rat, strain Fischer 344, males, in feed, site: liver, lesion: hepatocellular adenoma + hepatocellular carcinoma + neoplastic nodule, dosed 103 weeks, study length 105 weeks

O=CC(O)C(O)C(O)C(O)CO (stereo not given)
carcinogen call (mouse, strain AP Alderly Park, females, in feed, site: any site (literature study), lesion: several types, types named in the paper, dosed 100 weeks, study length 100 weeks): negative (inactive) | TD50 (mouse, strain AP Alderly Park, females, in feed, site: liver, lesion: hepatoma, dosed 100 weeks, study length 100 weeks): 538000 mg/kg/day (inactive) | carcinogen call (mouse, strain AP Alderly Park, females, in feed, site: lung, lesion: adenoma, dosed 100 weeks, study length 100 weeks): negative (inactive) | TD50 (mouse, strain AP Alderly Park, males, in feed, site: any site (literature study), lesion: several types, types named in the paper, dosed 100 weeks, study length 100 weeks): 132000 mg/kg/day (inactive) | carcinogen call (mouse, strain AP Alderly Park, males, in feed, site: liver, lesion: hepatoma, dosed 100 weeks, study length 100 weeks): negative (inactive) | carcinogen call (mouse, strain AP Alderly Park, males, in feed, site: lung, lesion: adenoma, dosed 100 weeks, study length 100 weeks): negative (inactive) | TD50 (rat, strain AP Alderly Park, females, in feed, site: any site (literature study), lesion: several types, types named in the paper, dosed 104 weeks, study length 104 weeks): 7790 mg/kg/day (inactive) | carcinogen call (rat, strain AP Alderly Park, females, in feed, site: liver, lesion: one or several types, types not named, dosed 104 weeks, study length 104 weeks): negative (inactive) | carcinogen call (rat, strain AP Alderly Park, males, in feed, site: any site (literature study), lesion: several types, types named in the paper, dosed 104 weeks, study length 104 weeks): negative (inactive) | TD50 (rat, strain AP Alderly Park, males, in feed, site: liver, lesion: hepatoma, dosed 104 weeks, study length 104 weeks): 133000 mg/kg/day (inactive)

Cc1ccc(C)c(C)c1
TD50 (rat, strain Sprague-Dawley, females, by gavage, site: any site (literature study), lesion: malignant tumor, dosed 104 weeks, study length 123 weeks): 14300 mg/kg/day | TD50 (rat, strain Sprague-Dawley, males, by gavage, site: Zymbal's gland, lesion: carcinoma, dosed 104 weeks, study length 123 weeks): 18000 mg/kg/day | TD50 (rat, strain Sprague-Dawley, males, by gavage, site: any site (literature study), lesion: malignant tumor, dosed 104 weeks, study length 123 weeks): 13900 mg/kg/day | TD50 (rat, strain Sprague-Dawley, males, by gavage, site: any site (literature study), lesion: several types, types named in the paper, dosed 104 weeks, study length 123 weeks): 1940 mg/kg/day | TD50 (rat, strain Sprague-Dawley, males, by gavage, site: ear duct, lesion: carcinoma, dosed 104 weeks, study length 123 weeks): 18300 mg/kg/day | TD50 (rat, strain Sprague-Dawley, males, by gavage, site: head, lesion: carcinoma, dosed 104 weeks, study length 123 weeks): 4350 mg/kg/day | TD50 (rat, strain Sprague-Dawley, males, by gavage, site: nasal cavity, lesion: esthesioneuroepithelioma, dosed 104 weeks, study length 123 weeks): 18300 mg/kg/day | TD50 (rat, strain Sprague-Dawley, males, by gavage, site: oral cavity, lesion: carcinoma, dosed 104 weeks, study length 123 weeks): 18300 mg/kg/day

O=C1CCCCCN1
carcinogen call (mouse, strain B6C3F1, females, in feed, site: any site (literature study), lesion: several types, types named in the paper, dosed 103 weeks, study length 105 weeks): negative (inactive) | carcinogen call (mouse, strain B6C3F1, males, in feed, site: any site (literature study), lesion: several types, types named in the paper, dosed 103 weeks, study length 105 weeks): negative (inactive) | TD50 (mouse, strain B6C3F1, males, in feed, site: liver, lesion: hepatocellular adenoma + hepatocellular carcinoma + neoplastic nodule, dosed 103 weeks, study length 105 weeks): 34300 mg/kg/day | carcinogen call [1]: negative (inactive) | TD50 [2]: 5690 mg/kg/day | TD50 (rat, strain Fischer 344, males, in feed, site: pituitary gland, lesion: carcinoma, NOS, dosed 103 weeks, study length 105 weeks): 3560 mg/kg/day (inactive)

Oc1ccc(OCc2ccccc2)cc1
carcinogen call (mouse, strain B6AKF1, females, oral dosing, site: any site (literature study), lesion: several types, types named in the paper, dosed 76 weeks, study length 76 weeks): negative (inactive) | carcinogen call (mouse, strain B6AKF1, females, oral dosing, site: liver, lesion: hepatoma, dosed 76 weeks, study length 76 weeks): negative (inactive) | carcinogen call (mouse, strain B6AKF1, females, oral dosing, site: lung, lesion: adenoma, dosed 76 weeks, study length 76 weeks): negative (inactive) | carcinogen call (mouse, strain B6AKF1, males, oral dosing, site: any site (literature study), lesion: several types, types named in the paper, dosed 76 weeks, study length 76 weeks): negative (inactive) | carcinogen call (mouse, strain B6AKF1, males, oral dosing, site: liver, lesion: hepatoma, dosed 76 weeks, study length 76 weeks): negative (inactive) | carcinogen call (mouse, strain B6AKF1, males, oral dosing, site: lung, lesion: adenoma, dosed 76 weeks, study length 76 weeks): negative (inactive) | TD50 (mouse, strain B6C3F1, females, oral dosing, site: any site (literature study), lesion: several types, types named in the paper, dosed 76 weeks, study length 76 weeks): 1230 mg/kg/day (inactive) | carcinogen call (mouse, strain B6C3F1, females, oral dosing, site: liver, lesion: hepatoma, dosed 76 weeks, study length 76 weeks): negative (inactive) | carcinogen call (mouse, strain B6C3F1, females, oral dosing, site: lung, lesion: several types, types named in the paper, dosed 76 weeks, study length 76 weeks): negative (inactive) | TD50 (mouse, strain B6C3F1, males, oral dosing, site: any site (literature study), lesion: several types, types named in the paper, dosed 76 weeks, study length 76 weeks): 141 mg/kg/day (inactive) | TD50 (mouse, strain B6C3F1, males, oral dosing, site: liver, lesion: hepatoma, dosed 76 weeks, study length 76 weeks): 382 mg/kg/day (inactive) | TD50 (mouse, strain B6C3F1, males, oral dosing, site: lung, lesion: adenoma, dosed 76 weeks, study length 76 weeks): 382 mg/kg/day (inactive)

[O]=[Bi]
carcinogen call (rat, strain BD, both sexes, in feed, site: hypophysis, lesion: adenoma, dosed 104 weeks, study length 120 weeks): negative (inactive) | carcinogen call (rat, strain BD, both sexes, in feed, site: mammary gland, lesion: carcinoma, dosed 104 weeks, study length 120 weeks): negative (inactive) | TD50 (rat, strain BD, both sexes, in feed, site: mammary gland, lesion: fibroadenoma, dosed 104 weeks, study length 120 weeks): 150000 mg/kg/day (inactive)

CC(=O)[O-].CC(=O)[O-].[OH-].[OH-].[OH-].[OH-].[Pb+2].[Pb+2].[Pb+2]
carcinogen call (mouse, strain Swiss, females, in feed, site: kidney, lesion: adenoma, dosed 104 weeks, study length 104 weeks): positive | TD50 (mouse, strain Swiss, females, in feed, site: kidney, lesion: carcinoma, dosed 104 weeks, study length 104 weeks): 14800 mg/kg/day | TD50 (mouse, strain Swiss, males, in feed, site: kidney, lesion: adenoma, dosed 86 weeks, study length 104 weeks): 986 mg/kg/day | TD50 (mouse, strain Swiss, males, in feed, site: kidney, lesion: carcinoma, dosed 86 weeks, study length 104 weeks): 472 mg/kg/day | TD50 (rat, strain Sprague-Dawley, males, in feed, site: kidney, lesion: several types, types named in the paper, dosed 79 weeks, study length 79 weeks): 266 mg/kg/day | carcinogen call (rat, strain Sprague-Dawley, males, in feed, site: liver, lesion: one or several types, types not named, dosed 79 weeks, study length 79 weeks): negative (inactive) | TD50 (rat, strain Wistar, females, in feed, site: kidney, lesion: several types, types named in the paper, dosed 104 weeks, study length 104 weeks): 339 mg/kg/day | TD50 (rat, strain Wistar, females, in feed, site: kidney, lesion: several types, types named in the paper, dosed 126 weeks, study length 126 weeks): 107 mg/kg/day | TD50 (rat, strain Wistar, males, in feed, site: kidney, lesion: several types, types named in the paper, dosed 104 weeks, study length 104 weeks): 443 mg/kg/day | TD50 (rat, strain Wistar, males, in feed, site: kidney, lesion: several types, types named in the paper, dosed 126 weeks, study length 126 weeks): 107 mg/kg/day

CC(=O)Oc1c(C)c(C)c2c(c1C)CCC(C)(CCCC(C)CCCC(C)CCCC(C)C)O2 (stereo not given)
carcinogen call (rat, strain Charles River CD (Sprague-Dawley), females, in feed, site: any site (literature study), lesion: malignant tumor, dosed 104 weeks, study length 104 weeks): negative (inactive) | carcinogen call (rat, strain Charles River CD (Sprague-Dawley), females, in feed, site: any site (literature study), lesion: several types, types named in the paper, dosed 104 weeks, study length 104 weeks): negative (inactive) | carcinogen call (rat, strain Charles River CD (Sprague-Dawley), females, in feed, site: liver, lesion: one or several types, types not named, dosed 52 weeks, study length 52 weeks): negative (inactive) | carcinogen call (rat, strain Charles River CD (Sprague-Dawley), females, in feed, site: liver, lesion: one or several types, types not named, dosed 104 weeks, study length 104 weeks): negative (inactive) | TD50 (rat, strain Charles River CD (Sprague-Dawley), males, in feed, site: any site (literature study), lesion: malignant tumor, dosed 104 weeks, study length 104 weeks): 67800 mg/kg/day (inactive) | TD50 (rat, strain Charles River CD (Sprague-Dawley), males, in feed, site: any site (literature study), lesion: several types, types named in the paper, dosed 104 weeks, study length 104 weeks): 67800 mg/kg/day (inactive) | carcinogen call (rat, strain Charles River CD (Sprague-Dawley), males, in feed, site: liver, lesion: one or several types, types not named, dosed 52 weeks, study length 52 weeks): negative (inactive) | carcinogen call (rat, strain Charles River CD (Sprague-Dawley), males, in feed, site: liver, lesion: one or several types, types not named, dosed 104 weeks, study length 104 weeks): negative (inactive)

O=[N+]([O-])c1ccc(Nc2ccc(Nc3ccccc3)c(S(=O)(=O)O)c2)c([N+](=O)[O-])c1
TD50 (mouse, strain B6C3F1, females, by gavage, site: liver, lesion: hepatocellular adenoma + hepatocellular carcinoma + neoplastic nodule, dosed 103 weeks, study length 104 weeks): 7550 mg/kg/day | TD50 (mouse, strain B6C3F1, females, by gavage, site: lung, lesion: alveolar/bronchiolar adenoma + alveolar/bronchiolar carcinoma, dosed 103 weeks, study length 104 weeks): 11600 mg/kg/day | TD50 (mouse, strain B6C3F1, females, by gavage, site: lung, lesion: alveolar/bronchiolar adenoma, dosed 103 weeks, study length 104 weeks): 2590 mg/kg/day (inactive) | TD50 (mouse, strain B6C3F1, males, by gavage, site: any site (literature study), lesion: several types, types named in the paper, dosed 103 weeks, study length 104 weeks): 372 mg/kg/day | TD50 (mouse, strain B6C3F1, males, by gavage, site: liver, lesion: hepatocellular carcinoma, dosed 103 weeks, study length 104 weeks): 184 mg/kg/day (inactive) | TD50 (mouse, strain B6C3F1, males, by gavage, site: lung, lesion: alveolar/bronchiolar adenoma + alveolar/bronchiolar carcinoma, dosed 103 weeks, study length 104 weeks): 5860 mg/kg/day | TD50 (rat, strain Fischer 344, females, by gavage, site: any site (literature study), lesion: several types, types named in the paper, dosed 103 weeks, study length 104 weeks): 361 mg/kg/day | TD50 (rat, strain Fischer 344, females, by gavage, site: kidney, lesion: transitional-cell carcinoma, dosed 103 weeks, study length 104 weeks): 1710 mg/kg/day | TD50 (rat, strain Fischer 344, females, by gavage, site: liver, lesion: hepatocellular adenoma + hepatocellular carcinoma + neoplastic nodule, dosed 103 weeks, study length 104 weeks): 5090 mg/kg/day | TD50 (rat, strain Fischer 344, males, by gavage, site: any site (literature study), lesion: several types, types named in the paper, dosed 100 weeks, study length 104 weeks): 270 mg/kg/day (inactive)

CC(=O)O[C@]1(C(C)=O)CC[C@H]2[C@@H]3C=C(Cl)C4=CC(=O)CC[C@]4(C)[C@H]3CC[C@@]21C
TD50 (mouse, strain C3H (MTV+), females, in feed, site: mammary tissue, wider than the gland, lesion: one or several types, types not named, dosed 104 weeks, study length 104 weeks): 3.77 mg/kg/day

CCOC(=O)/C(Cl)=N/Nc1ccccc1
TD50 (mouse, strain B6C3F1, females, in feed, site: pituitary gland, lesion: adenoma, NOS, dosed 103 weeks, study length 104 weeks): 20200 mg/kg/day (inactive) | TD50 (mouse, strain B6C3F1, females, in feed, site: uterus, lesion: endometrial stromal polyp, dosed 103 weeks, study length 104 weeks): 86500 mg/kg/day | TD50 (mouse, strain B6C3F1, males, in feed, site: lung, lesion: alveolar/bronchiolar adenoma, dosed 103 weeks, study length 104 weeks): 7160 mg/kg/day (inactive) | TD50 (rat, strain Fischer 344, females, in feed, site: adrenal gland, lesion: cortical adenoma, dosed 103 weeks, study length 105 weeks): 11900 mg/kg/day (inactive) | TD50 [1]: 29500 mg/kg/day | carcinogen call (rat, strain Fischer 344, males, in feed, site: any site (literature study), lesion: several types, types named in the paper, dosed 103 weeks, study length 105 weeks): negative (inactive) | TD50 [2]: 516000 mg/kg/day
